Source: US5114918A, “Endothelin antagonistic cyclic pentapeptides” (Banyu Pharmaceutical Co., Ltd., priority 1989, dated 1992)
Square brackets hold non-standard residues; d marks the D form. Peptide text beside a SMILES is read from it. dCya = N[C@H](CS(=O)(=O)O)C(=O)O; dPhg = N[C@@H](C(=O)O)c1ccccc1; dNle = CCCC[C@@H](N)C(=O)O; dNva = CCC[C@@H](N)C(=O)O; NMeA = CN[C@@H](C)C(=O)O; Nle = CCCC[C@H](N)C(=O)O; Orn = NCCC[C@H](N)C(=O)O

These compounds were tested against T1, endothelin receptor (membrane of smooth muscle tissue of porcine aorta) (Sus scrofa, UniProt Q29010) (assay: Endothelin binding inhibition test (125I-endothelin-1, porcine aorta smooth muscle membrane)). Settings: 1.1 μM of the test compound; porcine aorta smooth muscle membrane; 25° C, 4 hours; read-out: 125I-endothelin-1 binding inhibition, Inhibition (%).
T1 construct: from tissue; host or cells: smooth muscle tissue of porcine aorta (membrane fraction)
T1 sequence (Q29010 21-427): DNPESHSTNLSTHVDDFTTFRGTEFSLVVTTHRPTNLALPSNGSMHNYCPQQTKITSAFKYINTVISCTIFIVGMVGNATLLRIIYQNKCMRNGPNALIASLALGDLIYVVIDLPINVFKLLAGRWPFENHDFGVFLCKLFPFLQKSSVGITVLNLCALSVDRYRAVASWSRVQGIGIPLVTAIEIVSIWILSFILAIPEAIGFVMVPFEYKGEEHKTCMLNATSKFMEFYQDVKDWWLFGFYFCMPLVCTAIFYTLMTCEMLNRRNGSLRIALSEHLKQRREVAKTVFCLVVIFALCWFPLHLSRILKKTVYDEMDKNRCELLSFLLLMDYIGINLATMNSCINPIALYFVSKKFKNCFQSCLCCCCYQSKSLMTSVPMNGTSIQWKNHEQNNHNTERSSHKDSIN
Experimental: Endothelin binding inhibition test
The smooth muscle tissue of porcine aorta was homogenized in a buffer solution of 10 mM MOPS, pH 7.4, at 4° C. by a polytron. To the homogenate, sucrose was added to a concentration of 20%, and the mixture was centrifuged at 1,000×g for 15 minutes, and the supernatant was further centrifuged at 10,000×g for 15 minutes. The supernatant thereof was further centrifuged at 90,000×g for 40 minutes. The membrane precipitate thereby obtained was suspended in a buffer solution of 5 mM HEPES/Tris, pH 7.4, at a concentration of 25 mg/ml.
Then, 16 μl of this membrane suspension was added to 340 μl of 50 mM Tris/HCl buffer, pH 7.4, containing 10 μM calcium chloride, 10 μM magnesium chloride, 0.1 mM PMSF, 1 μM pepstatin A, 2 μM leupeptin, 1 mM 1,10-phenanthroline and 0.1% bovine serum albumin. To this suspension, 4 μl of (A) endothelin-1 (for nonspecific binding: 0.2 μM as the final concentration), (B) buffer solution A (for total control binding), or (C) a test compound (1.1 μM as the final concentration), was added. Further, to each suspension, 40 μl of ^125 I-endothelin-1 (12000-18000 cpm) was added. These mixtures were incubated at 25° C for 4 hours, then subjected to filtration on a glass filter GF/C and then washed with 5 mM HEPES/Tris, pH 7.4, containing 0.3% bovine serum albumin. Then, the radioactivity trapped by the glass filter was measured, and the ^125 I-endothelin-1 binding inhibition D (%) at 1.1 μM of the test compound was determined by the following equation. [formula] Each test was performed in triplicate.

Row | SMILES | inhibition at 1.1 µM
1 | CC(C)C[C@@H]1NC(=O)[C@@H](C(C)C)NC(=O)[C@H](CO)NC(=O)[C@@H](CCC(=O)O)NC(=O)[C@@H](Cc2c[nH]c3ccccc23)NC1=O [Example 1, cyclo(-DTrp-DGlu-Ser-DVal-Leu-)] (cyclo(L[dW][dE]S[dV])) | 19%
2 | CC(C)C[C@@H]1NC(=O)[C@@H](C(C)C)NC(=O)[C@H](C)NC(=O)[C@@H](CS(=O)(=O)O)NC(=O)[C@@H](Cc2c[nH]c3ccccc23)NC1=O [Example 2, cyclo(-DTrp-DCys(O3 Na)-Ala-DVal-Leu-)] (cyclo(A[dV]L[dW][dCya])) | 78%
3 | CC(C)C[C@@H]1NC(=O)[C@@H](C(C)C)NC(=O)[C@H](CCCCN)NC(=O)[C@@H](CC(=O)O)NC(=O)[C@@H](Cc2c[nH]c3ccccc23)NC1=O [Example 4, cyclo(-DTrp-DAsp-Lys-DVal-Leu-)] (cyclo(K[dV]L[dW][dD])) | 74%
4 | CCCC[C@@H]1NC(=O)[C@@H](C(C)C)NC(=O)[C@@H]2CCCN2C(=O)[C@@H](CS(=O)(=O)O)NC(=O)[C@@H](Cc2c[nH]c3ccccc23)NC1=O [Example 5, cyclo(-DTrp-DCys(O3 Na)-Pro-DVal-Nle-)] (cyclo([Nle][dW][dCya]P[dV])) | 81%
5 | CC(C)C[C@@H]1NC(=O)[C@@H](CC(=O)O)NC(=O)[C@@H](Cc2c[nH]c3ccccc23)NC(=O)[C@H](CC(C)C)NC(=O)[C@@H](C(C)C)NC1=O [Example 6, cyclo(-DTrp-DAsp-Leu-DVal-Leu-)] (cyclo(L[dV]L[dW][dD])) | 72%
6 | CC(C)C[C@@H]1NC(=O)[C@@H](C(C)C)NC(=O)[C@H](C)NC(=O)[C@@H](CCC(=O)O)NC(=O)[C@@H](Cc2c[nH]c3ccccc23)NC1=O [Example 7, cyclo(-DTrp-DGlu-Ala-DVal-Leu-)] (cyclo(A[dV]L[dW][dE])) | 27%
7 | CC(C)C[C@@H]1NC(=O)[C@@H](C(C)C)NC(=O)[C@H](CC(=O)O)NC(=O)[C@@H](CCC(=O)O)NC(=O)[C@@H](Cc2c[nH]c3ccccc23)NC1=O [Example 9, cyclo(-DTrp-DGlu-Asp-DVal-Leu-)] (cyclo(D[dV]L[dW][dE])) | 30%
8 | CC(C)C[C@@H]1NC(=O)[C@@H](C(C)C)NC(=O)[C@@H]2CCCN2C(=O)[C@@H](CCC(=O)O)NC(=O)[C@@H](Cc2c[nH]c3ccccc23)NC1=O [Example 10, cyclo(-DTrp-DGlu-Pro-DVal-Leu-)] (cyclo(L[dW][dE]P[dV])) | 54%
9 | CC(C)C[C@@H]1NC(=O)[C@@H](C(C)C)NC(=O)CNC(=O)[C@@H](CC(=O)O)NC(=O)[C@@H](Cc2c[nH]c3ccccc23)NC1=O [Example 11, cyclo(-DTrp-DAsp-Gly-DVal-Leu-)] (cyclo(G[dV]L[dW][dD])) | 74%
10 | CC(C)C[C@@H]1NC(=O)[C@@H](C(C)C)NC(=O)[C@H](C)N(C)C(=O)[C@@H](CC(=O)O)NC(=O)[C@@H](Cc2c[nH]c3ccccc23)NC1=O [Example 13, cyclo(-DTrp-DAsp-MeAla-DVal-Leu-)] (cyclo(L[dW][dD][NMeA][dV])) | 85%
11 | CSCC[C@@H]1NC(=O)[C@@H](CC(=O)O)NC(=O)[C@@H](Cc2c[nH]c3ccccc23)NC(=O)[C@H](CC(C)C)NC(=O)[C@@H](C(C)C)NC1=O [Example 14, cyclo(-DTrp-DAsp-Met-DVal-Leu-)] (cyclo(L[dW][dD]M[dV])) | 75%
12 | CC(C)C[C@@H]1NC(=O)[C@@H](C(C)C)NC(=O)[C@H](Cc2ccc(O)cc2)NC(=O)[C@@H](CC(=O)O)NC(=O)[C@@H](Cc2c[nH]c3ccccc23)NC1=O [Example 16, cyclo(-DTrp-DAsp-Tyr-DVal-Leu-)] (cyclo(L[dW][dD]Y[dV])) | 77%
13 | CC(C)C[C@@H]1NC(=O)[C@@H](C(C)C)NC(=O)[C@H](Cc2c[nH]c3ccccc23)NC(=O)[C@@H](CC(=O)O)NC(=O)[C@@H](Cc2c[nH]c3ccccc23)NC1=O [Example 17, cyclo(-DTrp-DAsp-Trp-DVal-Leu-)] (cyclo(L[dW][dD]W[dV])) | 75%
14 | CC(C)C[C@@H]1NC(=O)[C@@H](C(C)C)NC(=O)[C@H](Cc2c[nH]cn2)NC(=O)[C@@H](CC(=O)O)NC(=O)[C@@H](Cc2c[nH]c3ccccc23)NC1=O [Example 18, cyclo(-DTrp-DAsp-His-DVal-Leu-)] (cyclo(H[dV]L[dW][dD])) | 69%
15 | CC(C)C[C@@H]1NC(=O)[C@@H](C(C)C)NC(=O)[C@H](CCCNC(=N)N)NC(=O)[C@@H](CC(=O)O)NC(=O)[C@@H](Cc2c[nH]c3ccccc23)NC1=O [Example 19, cyclo(-DTrp-DAsp-Arg-DVal-Leu-)] (cyclo(L[dW][dD]R[dV])) | 70%
16 | CC(C)C[C@@H]1NC(=O)[C@@H](C(C)C)NC(=O)[C@H](CCCN)NC(=O)[C@@H](CC(=O)O)NC(=O)[C@@H](Cc2c[nH]c3ccccc23)NC1=O [Example 20, cyclo(-DTrp-DAsp-Orn-DVal-Leu-)] (cyclo(L[dW][dD][Orn][dV])) | 65%
17 | CC(C)C[C@@H]1NC(=O)[C@@H](C(C)C)NC(=O)[C@H](CCC(N)=O)NC(=O)[C@@H](CC(=O)O)NC(=O)[C@@H](Cc2c[nH]c3ccccc23)NC1=O [Example 21, cyclo(-DTrp-nAsp-Gln-DVal-Leu-)] (cyclo(L[dW][dD]Q[dV])) | 73%
18 | CC(C)C[C@@H]1NC(=O)[C@@H](C(C)C)NC(=O)[C@H](CC(=O)O)NC(=O)[C@@H](CC(=O)O)NC(=O)[C@@H](Cc2c[nH]c3ccccc23)NC1=O [Example 22, cyclo(-DTrp-DAsp-Asp-DVal-Leu-)] (cyclo(D[dV]L[dW][dD])) | 75%
19 | CC(C)C[C@@H]1NC(=O)[C@@H](C(C)C)NC(=O)[C@H](CCC(=O)O)NC(=O)[C@@H](CC(=O)O)NC(=O)[C@@H](Cc2c[nH]c3ccccc23)NC1=O [Example 23, cyclo(-DTrp-DAsp-Glu-DVal-Leu-)] (cyclo(E[dV]L[dW][dD])) | 72%
20 | CC(C)C[C@@H]1NC(=O)[C@@H](C(C)C)NC(=O)[C@H](CS)NC(=O)[C@@H](CC(=O)O)NC(=O)[C@@H](Cc2c[nH]c3ccccc23)NC1=O [Example 25, cyclo(-DTrp-DAsp-Cys-DVal-Leu-)] (cyclo(C[dV]L[dW][dD])) | 74%
21 | CC(C)C[C@@H]1NC(=O)[C@@H](C(C)C)NC(=O)[C@H](CO)NC(=O)[C@@H](CC(=O)O)NC(=O)[C@@H](Cc2c[nH]c3ccccc23)NC1=O [Example 26, cyclo(-DTrp-DAsp-Ser-DVal-Leu-)] (cyclo(L[dW][dD]S[dV])) | 75%
22 | CC(C)C[C@@H]1NC(=O)[C@@H](C(C)C)NC(=O)[C@H]([C@@H](C)O)NC(=O)[C@@H](CC(=O)O)NC(=O)[C@@H](Cc2c[nH]c3ccccc23)NC1=O [Example 27, cyclo(-DTrp-DAsp-Thr-DVal-Leu-)] (cyclo(L[dW][dD]T[dV])) | 66%
23 | CC(C)C[C@@H]1NC(=O)[C@@H](CC(C)C)NC(=O)[C@H](C)NC(=O)[C@@H](CC(=O)O)NC(=O)[C@@H](Cc2c[nH]c3ccccc23)NC1=O [Example 28, cyclo(-DTrp-DAsp-Ala-DLeu-Leu-)] (cyclo(A[dL]L[dW][dD])) | 51%
24 | CC(C)C[C@@H]1NC(=O)[C@@H]([C@H](C)O)NC(=O)[C@H](C)NC(=O)[C@@H](CC(=O)O)NC(=O)[C@@H](Cc2c[nH]c3ccccc23)NC1=O [Example 29, cyclo(-DTrp-DAsp-Ala-DThr-Leu-)] (cyclo(A[dT]L[dW][dD])) | 15%
25 | CC[C@@H](C)[C@H]1NC(=O)[C@@H]2CCCN2C(=O)[C@@H](CC(=O)O)NC(=O)[C@@H](Cc2c[nH]c3ccccc23)NC(=O)[C@H](CC(C)C)NC1=O [Example 31, cyclo(-DTrp-DAsp-Pro-DIle-Leu-)] (cyclo(L[dW][dD]P[dI])) | 80%
26 | CCCC[C@H]1NC(=O)[C@@H]2CCCN2C(=O)[C@@H](CC(=O)O)NC(=O)[C@@H](Cc2c[nH]c3ccccc23)NC(=O)[C@H](CC(C)C)NC1=O [Example 33, cyclo(-DTrp-DAsp-Pro-DNle-Leu-)] (cyclo(L[dW][dD]P[dNle])) | 77%
27 | CC(C)C[C@@H]1NC(=O)[C@@H](c2ccccc2)NC(=O)[C@@H]2CCCN2C(=O)[C@@H](CC(=O)O)NC(=O)[C@@H](Cc2c[nH]c3ccccc23)NC1=O [Example 34, cyclo(-DTrp-DAsp-Pro-DPhg-Leu-)] (cyclo(L[dW][dD]P[dPhg])) | 83%
28 | CCC[C@H]1NC(=O)[C@@H]2CCCN2C(=O)[C@@H](CC(=O)O)NC(=O)[C@@H](Cc2c[nH]c3ccccc23)NC(=O)[C@H](CC(C)C)NC1=O [Example 35, cyclo(-DTrp-DAsp-Pro-DNva-Leu-)] (cyclo(L[dW][dD]P[dNva])) | 79%
